Results reported in PMC7897990, “TriTOX: A novel Trichomonas vaginalis assay platform for high-throughput screening of compound libraries” (International Journal for Parasitology: Drugs and Drug …, 2021).
Where two headings read alike, the source gives them in different places.

Key:
[1] = test system: Trichomonas vaginalis G3 trophozoites
[2] = test system: nontumorigenic neonatal foreskin fibroblast (NFF) cell line
[3] = HTS, parasite screen at 1 µg/mL, replicate 1
[4] = HTS, parasite screen at 1 µg/mL, replicate 2
[5] = NFF fibroblast screen at 5 µg/mL, A = active, I = inactive
[6] = HTS, parasite screen at 1 µg/mL, replicate 1, raw absorbance
[7] = HTS, parasite screen at 1 µg/mL, replicate 2, raw absorbance
[8] = parasite screen at 1 µg/mL, replicate 1
[9] = parasite screen at 1 µg/mL, replicate 2
[10] = NFF_NS1 screen at 5 µg/mL, NFF cells
[11] = HTS replicate 1, parasite screen 1 µg/mL
[12] = HTS replicate 2, parasite screen 1 µg/mL
[13] = NFF fibroblasts, single concentration 5 µg/mL
[14] = HTS single concentration, parasite screen 1 µg/mL, replicate 1
[15] = HTS single concentration, parasite screen 1 µg/mL, replicate 2
[16] = NFF_NS1 screen 5 µg/mL, single concentration

Question: With `COc1c(O)c(C)c(C)c(O)c1OC` [BIA-H1651] as the compound, how does the T.vaginalis_%inb_Rep1 ([1]; replicate 1, parasite screen at 1 µg/mL) read?
Answer: Its T.vaginalis_%inb_Rep1 is 13.69%.

Question: And the T.vaginalis_%inb_Rep2 ([1]; replicate 2, parasite screen at 1 µg/mL)?
Answer: Its T.vaginalis_%inb_Rep2 is 12.19%.

Question: What about the NFF_Activity ([2]; NFF cells, screen at 5 µg/mL) of the same compound?
Answer: Its NFF_Activity is “A (active (A) compounds having >25% inhibitory activity)”.

Question: `CN[C@@H]1C[C@H]2O[C@@](C)([C@@H]1OC)n1c3ccccc3c3c4c(c5c6ccccc6n2c5c31)C(=O)N[C@H]4O` [UCN-02] was tested. Which T.vaginalis_%inb_Rep1 [1, 3] did it give?
Answer: Its T.vaginalis_%inb_Rep1 is 9.65%.

Question: And the T.vaginalis_%inb_Rep2 [1, 4]?
Answer: The T.vaginalis_%inb_Rep2 was 20.96%.

Question: What about the NFF_Activity [2, 5] of the same compound?
Answer: The NFF_Activity was “A (active (A) compounds having >25% inhibitory activity)”.

Question: Which T.vaginalis_%inb_Rep1 [1, 3] does the source give for `CC[C@H]1OC(=O)[C@H](C)[C@@H](O[C@H]2C[C@@](C)(O)[C@@H](O)[C@H](C)O2)[C@H](C)[C@@H](O[C@@H]2O[C@H](C)C[C@H](N(C)C)[C@H]2O)[C@](C)(O)C[C@@H](C)C(=O)[C@H](C)[C@@H](O)[C@]1(C)O` [Erythromycin C] here?
Answer: Its T.vaginalis_%inb_Rep1 is 5.17%.

Question: And the T.vaginalis_Absorbance_Rep1 [1, 6]?
Answer: The T.vaginalis_Absorbance_Rep1 was 0.805.

Question: What about the T.vaginalis_%inb_Rep2 [1, 4] of the same compound?
Answer: Its T.vaginalis_%inb_Rep2 is 6.87%.

Question: And the T.vaginalis_Absorbance_Rep2 [1, 7]?
Answer: The T.vaginalis_Absorbance_Rep2 was 0.715.

Question: And the NFF_Activity ([2]; NFF_NS1 screen at 5 µg/mL)?
Answer: Its NFF_Activity is “I (otherwise these were reported as inactive (I))”.

Question: With `Nc1ncnc2c1ncn2[C@@H]1O[C@H](C[C@@H](N)CC[C@H](N)C(=O)O)[C@@H](O)[C@H]1O` [BIA-S1376] as the compound, how does the T.vaginalis_%inb_Rep1 [1, 8] read?
Answer: Its T.vaginalis_%inb_Rep1 is 11.43%.

Question: What about the T.vaginalis_%inb_Rep2 [1, 9] of the same compound?
Answer: The T.vaginalis_%inb_Rep2 was 25.29%.

Question: What about the NFF_Activity [2, 10] of the same compound?
Answer: Its NFF_Activity is “I (otherwise these were reported as inactive (I))”.

Question: Fulvic acid was tested. Which T.vaginalis_%inb_Rep1 [1, 3] did it give?
Answer: The T.vaginalis_%inb_Rep1 was 12.65%.

Question: And the T.vaginalis_Absorbance_Rep1 [1, 6]?
Answer: Its T.vaginalis_Absorbance_Rep1 is 0.944.

Question: And the T.vaginalis_%inb_Rep2 [1, 4]?
Answer: The T.vaginalis_%inb_Rep2 was 4.34%.

Question: And the T.vaginalis_Absorbance_Rep2 [1, 7]?
Answer: Its T.vaginalis_Absorbance_Rep2 is 0.68.

Question: And the NFF_Activity ([2]; NFF_NS1 screen at 5 µg/mL)?
Answer: The NFF_Activity was “I (otherwise these were reported as inactive (I))”.

Question: How did the T.vaginalis_%inb_Rep1 [1, 11] turn out when `CC(C)=CCC[C@H](C)[C@@]1(O)CC[C@]2(C)C[C@H]3[C@H](C(=O)C[C@@]3(C)O)/C(C=O)=C\C[C@H]21` [Ophiobolin B] was run?
Answer: Its T.vaginalis_%inb_Rep1 is 11.82%.

Question: What about the T.vaginalis_%inb_Rep2 [1, 12] of the same compound?
Answer: The T.vaginalis_%inb_Rep2 was 13.09%.

Question: What about the NFF_Activity [2, 13] of the same compound?
Answer: The NFF_Activity was “A (active (A) compounds having >25% inhibitory activity)”.

Question: For `CC[C@H](C)[C@H]1O[C@]2(C=C[C@@H]1C)C[C@@H]1C[C@@H](C/C=C(\C)[C@@H](O[C@H]3C[C@H](OC)[C@@H](O[C@H]4C[C@H](OC)[C@@H](O)[C@H](C)O4)[C@H](C)O3)[C@@H](C)/C=C/C=C3\CO[C@@H]4[C@H](O)C(C)C=C(C(=O)O1)[C@]34O)O2` (some centres unmarked) [BIA-A1579], which T.vaginalis_%inb_Rep1 [1, 14] is on record?
Answer: The T.vaginalis_%inb_Rep1 was 15.89%.

Question: What about the T.vaginalis_%inb_Rep2 [1, 15] of the same compound?
Answer: Its T.vaginalis_%inb_Rep2 is 15.40%.

Question: And the NFF_Activity [2, 16]?
Answer: The NFF_Activity was “I (otherwise these were reported as inactive (I))”.

Question: `C/C=C/C1=CC(=O)[C@@H](O)[C@@H]1O` [BIA-T1408] was tested. Which T.vaginalis_%inb_Rep1 [1, 8] did it give?
Answer: The T.vaginalis_%inb_Rep1 was 6.82%.

Question: And the T.vaginalis_%inb_Rep2 [1, 9]?
Answer: Its T.vaginalis_%inb_Rep2 is 13.71%.

Question: And the NFF_Activity [2, 10]?
Answer: The NFF_Activity was “I (otherwise these were reported as inactive (I))”.

Question: For `Cc1cc(O)cc2oc(=O)c3c(O)cc(O)cc3c12` [BIA-A1926], which T.vaginalis_%inb_Rep1 [1, 14] is on record?
Answer: The T.vaginalis_%inb_Rep1 was 6.66%.

Question: What about the T.vaginalis_%inb_Rep2 [1, 15] of the same compound?
Answer: The T.vaginalis_%inb_Rep2 was 9.26%.

Question: What about the NFF_Activity [2, 16] of the same compound?
Answer: Its NFF_Activity is “I (otherwise these were reported as inactive (I))”.

Question: How did the T.vaginalis_%inb_Rep1 [1] turn out when Diacetoxyscirpenol was run?
Answer: The T.vaginalis_%inb_Rep1 was 8.29%.

Question: And the T.vaginalis_%inb_Rep2 [1]?
Answer: The T.vaginalis_%inb_Rep2 was 9.08%.

Question: What about the T.vaginalis_Absorbance_Rep1 [1] of the same compound?
Answer: The T.vaginalis_Absorbance_Rep1 was 0.923.

Question: And the T.vaginalis_Absorbance_Rep2 [1]?
Answer: Its T.vaginalis_Absorbance_Rep2 is 0.786.

Question: What about the NFF_Activity [2] of the same compound?
Answer: The NFF_Activity was “I (key: active (A) compounds having >25% inhibitory activity; otherwise these were reported as inactive (I))”.

Question: Which T.vaginalis_%inb_Rep1 [1, 3] does the source give for `CC1CCCC(O)CCCCCc2cc(O)cc(O)c2C(=O)O1` (stereo not drawn) [Zearalanol, beta-] here?
Answer: Its T.vaginalis_%inb_Rep1 is 9.65%.

Question: What about the T.vaginalis_%inb_Rep2 [1, 4] of the same compound?
Answer: Its T.vaginalis_%inb_Rep2 is 13.83%.

Question: And the NFF_Activity [2, 5]?
Answer: The NFF_Activity was “I (otherwise these were reported as inactive (I))”.

Question: What does the source list for `O=C1c2c(O)cc(O)cc2OC1(O)Cc1ccc(O)c(O)c1` (centres unmarked) [BIA-A1767]?
Answer: T.vaginalis_%inb_Rep1 [1, 14]: 15.13%; T.vaginalis_%inb_Rep2 [1, 15]: 38.61%; NFF_Activity [2, 16]: I (otherwise these were reported as inactive (I))

Question: With `COc1c(O)c2c(=O)cc3c4c5c(cc(=O)c6c(O)c(OC)c(C[C@H](C)OC(C)=O)c(c(c1C[C@H](C)OC(C)=O)c24)c65)OCO3` [Diacetylcercosporin] as the compound, how does the T.vaginalis_%inb_Rep1 [1, 3] read?
Answer: Its T.vaginalis_%inb_Rep1 is 12.65%.

Question: And the T.vaginalis_Absorbance_Rep1 [1, 6]?
Answer: Its T.vaginalis_Absorbance_Rep1 is 0.944.

Question: And the T.vaginalis_%inb_Rep2 [1, 4]?
Answer: Its T.vaginalis_%inb_Rep2 is 14.53%.

Question: And the T.vaginalis_Absorbance_Rep2 [1, 7]?
Answer: Its T.vaginalis_Absorbance_Rep2 is 0.821.

Question: What about the NFF_Activity ([2]; NFF_NS1 screen at 5 µg/mL) of the same compound?
Answer: The NFF_Activity was “A (active (A) compounds having >25% inhibitory activity)”.

Question: For `CC(=O)OC[C@]12C[C@H](O)C(C)=C[C@H]1O[C@@H]1[C@H](O)[C@@H](OC(C)=O)[C@@]2(C)[C@]12CO2` [Neosolaniol], which T.vaginalis_%inb_Rep1 [1] is on record?
Answer: Its T.vaginalis_%inb_Rep1 is 8.23%.

Question: And the T.vaginalis_%inb_Rep2 [1]?
Answer: The T.vaginalis_%inb_Rep2 was 6.22%.

Question: What about the NFF_Activity [2] of the same compound?
Answer: The NFF_Activity was “I (key: active (A) compounds having >25% inhibitory activity; otherwise these were reported as inactive (I))”.

Question: Which results are given for `CC(C)C[C@H](NC(=O)[C@@H](O)[C@H](N)Cc1ccccc1)C(=O)O` [BIA-B1278]?
Answer: T.vaginalis_%inb_Rep1 [1, 14]: 14.49%; T.vaginalis_%inb_Rep2 [1, 15]: 15.84%; NFF_Activity [2, 16]: I (otherwise these were reported as inactive (I))

Question: With `CO[C@H]1C[C@@H]2CC[C@@H](C)[C@@](O)(O2)C(=O)C(=O)N2CCCC[C@H]2C(=O)O[C@H]([C@H](C)C[C@@H]2CC[C@@H](OP(C)(C)=O)[C@H](OC)C2)CC(=O)[C@H](C)/C=C(\C)[C@@H](O)[C@@H](OC)C(=O)[C@H](C)C[C@H](C)/C=C/C=C/C=C/1C` [BIA-R1450] as the compound, how does the T.vaginalis_%inb_Rep1 [1, 8] read?
Answer: Its T.vaginalis_%inb_Rep1 is 8.81%.

Question: And the T.vaginalis_%inb_Rep2 [1, 9]?
Answer: Its T.vaginalis_%inb_Rep2 is 19.01%.

Question: And the NFF_Activity [2, 10]?
Answer: The NFF_Activity was “I (otherwise these were reported as inactive (I))”.

Question: What does the source list for `O=C(O)c1cccc2nc3ccccc3nc12` [Tubermycin B]?
Answer: T.vaginalis_%inb_Rep1 [1, 3]: 8.13%; T.vaginalis_%inb_Rep2 [1, 4]: 16.27%; NFF_Activity [2, 5]: I (otherwise these were reported as inactive (I))

Question: How did the T.vaginalis_%inb_Rep1 [1, 11] turn out when `COc1oc(C2C/C(=C/C(C)=C/C(C)=C/C(C)=C/c3ccc([N+](=O)[O-])cc3)CO2)c(C)c(=O)c1C` (centres unmarked) [Neoaureothin] was run?
Answer: The T.vaginalis_%inb_Rep1 was 14.76%.

Question: And the T.vaginalis_%inb_Rep2 [1, 12]?
Answer: Its T.vaginalis_%inb_Rep2 is 12.19%.

Question: What about the NFF_Activity [2, 13] of the same compound?
Answer: The NFF_Activity was “I (otherwise these were reported as inactive (I))”.
